Measured values from patent US20260137819A1 (Radionetics Oncology, Inc., priority 2022, published 2026).
pEC50: −log10 of the molar value.

The molecules below were run against T1, human follicle-stimulating hormone receptor (FSHR) (Homo sapiens, UniProt P23945) (assay: Measurement of agonist cAMP production by activation of human FSHR). Details: CHO-K1 human FSHR cells, 30 minutes at 37° C., HTRF cAMP kit; read-out: hFSHR Agonist cAMP EC50.
T1 construct: host or cells: CHO-K1
T1 sequence (P23945 18-695): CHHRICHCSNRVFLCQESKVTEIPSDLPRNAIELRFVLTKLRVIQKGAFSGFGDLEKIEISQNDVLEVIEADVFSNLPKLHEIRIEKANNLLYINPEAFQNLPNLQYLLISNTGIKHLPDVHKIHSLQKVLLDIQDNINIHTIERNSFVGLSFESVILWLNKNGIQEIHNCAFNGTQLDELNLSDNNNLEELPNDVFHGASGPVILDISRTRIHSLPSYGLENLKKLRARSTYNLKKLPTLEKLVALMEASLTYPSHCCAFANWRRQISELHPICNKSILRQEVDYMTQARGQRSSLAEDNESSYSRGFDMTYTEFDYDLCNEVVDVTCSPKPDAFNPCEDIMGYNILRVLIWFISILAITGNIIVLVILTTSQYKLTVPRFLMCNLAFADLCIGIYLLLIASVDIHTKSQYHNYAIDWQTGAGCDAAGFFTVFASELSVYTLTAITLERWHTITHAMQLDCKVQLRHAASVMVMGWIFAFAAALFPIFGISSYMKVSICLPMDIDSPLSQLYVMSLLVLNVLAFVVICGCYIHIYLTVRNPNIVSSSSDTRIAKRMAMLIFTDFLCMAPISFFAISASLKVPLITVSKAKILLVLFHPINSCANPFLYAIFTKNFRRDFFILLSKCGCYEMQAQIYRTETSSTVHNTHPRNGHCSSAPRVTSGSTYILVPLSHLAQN
Format: cell-based
Protocol: Measurement of agonist cAMP production by activation of human FSHR
Two days prior to the assay, 5,000 CHO—K1 human FSHR cells (Eurofins #95-0119C2) stably expressing the functional human follicle-stimulating hormone receptor were plated in a 96-well tissue culture-treated plate in growth media supplemented with the appropriate selection agent. […] The cells were incubated for 30 minutes at 37° C. (the final concentrations of the compound ranged from 0-10,000 nM). After the 30-minute incubation at 37° C., lysis buffer (HRTF CAMP kit, Cisbio #62AM5PEB)w as added directly to the cells and incubated for 30-minutes at room temperature. The diluted lysate was transferred and CAMP detection and visualization antibodies (HRTF CAMP kit, Cisbio #62AM5PEB) were added and incubated for 1-24 hours at room temperature. The time-resolved fluorescent signal was read with a Tecan M1000Pro (Tecan) multiplate reader. The intracellular cAMP concentrations were calculated by regression to a standard curve and were plotted vs. the concentration of the agonists. The concentration of test compound or FSH required to generate a half maximal response EC50 were calculated using standard curve-fitting methods. All data manipulations were performed using GraphPad Prism v9.3.1 (GraphPad, San Diego, CA).

Compound	pEC50
COc1cc2c(cc1-c1cccc(NC(=O)C[C@@H](N)C(=O)NC3CCN(C(=O)CN4CCN(CC(=O)O)CCN(CC(=O)O)CCN(CC(=O)O)CC4)CC3)c1)-c1c(c(C(=O)N3CCOCC3(C)C)nn1-c1cc(Cl)cc(Cl)c1)CO2 [Compound 12, (R)-2,2′,2″-(10-(2-(4-(2-amino-4-((3-(1-(3,5-dichlorophenyl)-3-(3,3-dimethylmorpholine-4-carbonyl)-7-methoxy-1,4-dihydrochromeno|4,3-clpyrazol-8-yl)phenyl)amino)-4-oxobutanamido)piperidin-1-yl)-2-oxoethyl)-1,4,7,10-tetraazacyclododecane-1,4,7-triyl)triacetic acid]	7.00 to 8.00
COc1cc2c(cc1-c1cccc(NC(=O)CCOCCOCCOCCN(CCOCCOCCOCCNC(=O)CN3CCN(CC(=O)O)CCN(CC(=O)O)CCN(CC(=O)O)CC3)CCOCCOCCOCCNC(=O)CN3CCN(CC(=O)O)CCN(CC(=O)O)CCN(CC(=O)O)CC3)c1)-c1c(c(C(=O)N3CCOCC3(C)C)nn1-c1cc(Cl)cc(Cl)c1)CO2 [Compound 13]	7.00 to 8.00
COc1cc2c(cc1-c1cccc(NC(=O)NCCNC(=O)C[C@H](O)C[C@H](O)CCNC(=O)CN3CCN(CC(=O)O)CCN(CC(=O)O)CCN(CC(=O)O)CC3)c1)-c1c(c(C(=O)N3CCOCC3(C)C)nn1-c1cc(Cl)cc(Cl)c1)CO2 [Compound 14, 2,2′,2″-(10-(2-(((3R,5R)-7-((2-(3-(3-(1-(3,5-dichlorophenyl)-3-(3,3-dimethylmorpholine-4-carbonyl)-7-methoxy-1,4-dihydrochromeno[4,3-c]pyrazol-8-yl)phenyl)ureido)ethyl)amino)-3,5-dihydroxy-7-oxoheptyl)amino)-2-oxoethyl)-1,4,7,10-tetraazacyclododecane-1,4,7-triyl)triacetic acid]	> 8.00
COc1cc2c(cc1-c1cccc(NC(=O)CCC(=O)N(CCOCCOCCC(=O)O)C3CCN(C(=O)CN4CCN(CC(=O)O)CCN(CC(=O)O)CCN(CC(=O)O)CC4)CC3)c1)-c1c(c(C(=O)N3CCOCC3(C)C)nn1-c1cc(Cl)cc(Cl)c1)CO2 [Compound 15, 2,2′,2″-(10-(2-(4-(N-(2-(2-(2-carboxyethoxy)ethoxy)ethyl)-4-((3-(1-(3,5-dichlorophenyl)-3-(3,3-dimethylmorpholine-4-carbonyl)-7-methoxy-1,4-dihydrochromeno[4,3-c]pyrazol-8-yl)phenyl)amino)-4-oxobutanamido)piperidin-1-yl)-2-oxoethyl)-1,4,7,10-tetraazacyclododecane-1,4,7-triyl)triacetic acid]	> 8.00
COc1cc2c(cc1-c1cccc(NC(=O)CCOCCOCCOCCOCCOCCOCCNC(=O)CN3CCN(CC(=O)O)CCN(CC(=O)O)CCN(CC(=O)O)CC3)c1)-c1c(c(C(=O)N3CCOCC3(C)C)nn1-c1cc(Cl)cc(Cl)c1)CO2 [Compound 16, 2,2′,2″-(10-(24-((3-(1-(3,5-dichlorophenyl)-3-(3,3-dimethylmorpholine-4-carbonyl)-7-methoxy-1,4-dihydrochromeno[4,3-c]pyrazol-8-yl)phenyl)amino)-2,24-dioxo-6,9,12,15,18,21-hexaoxa-3-azatetracosyl)-1,4,7,10-tetraazacyclododecane-1,4,7-triyl)triacetic acid]	7.00 to 8.00
COc1cc2c(cc1-c1cccc(NC(=O)CCOCCOCCOCCOCCOCCOCCNC(=O)CN3CCN(CC(=O)O)CCN(CC(=O)O)CCN(CC(=O)O)CC3)c1)-c1c(c(C(=O)N3CCOCC3(C)C)nn1-c1cc(Cl)cc(Cl)c1)CO2 [Compound 16A]	> 8.00
COc1cc2c(cc1-c1cccc(NC(=O)CCOCCOCCOCCOCCNC(=O)CN3CCN(CC(=O)O)CCN(CC(=O)O)CCN(CC(=O)O)CC3)c1)-c1c(c(C(=O)N3CCOCC3(C)C)nn1-c1cc(Cl)cc(Cl)c1)CO2 [Compound 17, 2,2′,2″-(10-(18-((3-(1-(3,5-dichlorophenyl)-3-(3,3-dimethylmorpholine-4-carbonyl)-7-methoxy-1,4-dihydrochromeno|4,3-c|pyrazol-8-yl)phenyl)amino)-2,18-dioxo-6,9,12,15-tetraoxa-3-azaoctadecyl)-1,4,7,10-tetraazacyclododecane-1,4,7-triyl)triacetic acid]	> 8.00
COc1cc2c(cc1-c1cccc(NC(=O)CCOCCOCCOCCNC(=O)CN3CCN(CC(=O)O)CCN(CC(=O)O)CCN(CC(=O)O)CC3)c1)-c1c(c(C(=O)N3CCOCC3(C)C)nn1-c1cc(Cl)cc(Cl)c1)CO2 [Compound 18, 2,2′,2″-(10-(15-((3-(1-(3,5-dichlorophenyl)-3-(3,3-dimethylmorpholine-4-carbonyl)-7-methoxy-1,4-dihydrochromeno|4,3-c|pyrazol-8-yl)phenyl)amino)-2,15-dioxo-6,9,12-trioxa-3-azapentadecyl)-1,4,7,10-tetraazacyclododecane-1,4,7-triyl)triacetic acid]	7.00 to 8.00
COc1cc2c(cc1-c1cccc(NC(=O)CCOCCOCCOCCNC(=O)CN3CCN(CC(=O)O)CCN(CC(=O)O)CCN(CC(=O)O)CC3)c1)-c1c(c(C(=O)N3CCOCC3(C)C)nn1-c1cc(Cl)cc(Cl)c1)CO2 [Compound 18A]	> 8.00
COc1cc2c(cc1-c1cccc(NC(=O)CCOCCOCCNC(=O)CN3CCN(CC(=O)O)CCN(CC(=O)O)CCN(CC(=O)O)CC3)c1)-c1c(c(C(=O)N3CCOCC3(C)C)nn1-c1cc(Cl)cc(Cl)c1)CO2 [Compound 19, 2,2′,2″-(10-(2-((2-(2-(3-((3-(1-(3,5-dichlorophenyl)-3-(3,3-dimethylmorpholine-4-carbonyl)-7-methoxy-1,4-dihydrochromeno[4,3-c]pyrazol-8-yl)phenyl)amino)-3-oxopropoxy)ethoxy)ethyl)amino)-2-oxoethyl)-1,4,7,10-tetraazacyclododecane-1,4,7-triyl)triacetic acid]	> 8.00
COc1cc2c(cc1-c1cccc(NC(=O)CCOCCNC(=O)CN3CCN(CC(=O)O)CCN(CC(=O)O)CCN(CC(=O)O)CC3)c1)-c1c(c(C(=O)N3CCOCC3(C)C)nn1-c1cc(Cl)cc(Cl)c1)CO2 [Compound 20, 2,2′,2″-(10-(2-((2-(3-((3-(1-(3,5-dichlorophenyl)-3-(3,3-dimethylmorpholine-4-carbonyl)-7-methoxy-1,4-dihydrochromeno[4,3-c]pyrazol-8-yl)phenyl)amino)-3-oxopropoxy)ethyl)amino)-2-oxoethyl)-1,4,7,10-tetraazacyclododecane-1,4,7-triyl)triacetic acid]	> 8.00
COc1cc2c(cc1-c1cccc(NC(=O)CCOCCOCCNC(=O)C3OC(CNC(=O)CN4CCN(CC(=O)O)CCN(CC(=O)O)CCN(CC(=O)O)CC4)C(O)C(O)C3O)c1)-c1c(c(C(=O)N3CCOCC3(C)C)nn1-c1cc(Cl)cc(Cl)c1)CO2 [Compound 21, 2,2′,2″-(10-(2-((((2S,3R,4R,5R,6S)-6-((2-(2-(3-((3-(1-(3,5-dichlorophenyl)-3-(3,3-dimethylmorpholine-4-carbonyl)-7-methoxy-1,4-dihydrochromeno|4,3-clpyrazol-8-yl)phenyl)amino)-3-oxopropoxy)ethoxy)ethyl)carbamoyl)-3,4,5-trihydroxytetrahydro-2H-pyran-2-yl)methyl)amino)-2-oxoethyl)-1,4,7,10-tetraazacyclododecane-1,4,7-triyl)triacetic acid]	> 8.00
COc1cc2c(cc1-c1cccc(NC(=O)CN(C)C(=O)CN(C)C(=O)CN(C)C(=O)CN(C)C(=O)CN(C)C(=O)CCNC(=O)CN3CCN(CC(=O)O)CCN(CC(=O)O)CCN(CC(=O)O)CC3)c1)-c1c(c(C(=O)N3CCOCC3(C)C)nn1-c1cc(Cl)cc(Cl)c1)CO2 [Compound 22]	> 8.00
COc1cc2c(cc1-c1cccc(NC(=O)NCCNC(=O)[C@H](N)CCCCNC(=O)CN3CCN(CC(=O)O)CCN(CC(=O)O)CCN(CC(=O)O)CC3)c1)-c1c(c(C(=O)N3CCOCC3(C)C)nn1-c1cc(Cl)cc(Cl)c1)CO2 [Compound 23A, indium (III) (R)-2,2′,2″-(10-(2-((5-amino-6-((2-(3-(3-(1-(3,5-dichlorophenyl)-3-(3,3-dimethylmorpholine-4-carbonyl)-7-methoxy-1,4-dihydrochromeno[4,3-c]pyrazol-8-yl)phenyl)ureido)ethyl)amino)-6-oxohexyl)amino)-2-oxoethyl)-1,4,7,10-tetraazacyclododecane-1,4,7-triyl)triacetate]	7.00 to 8.00

Same assay, conditions: hFSHR Agonist cAMP EC50, CHO-K1 human FSHR cells, 30 minutes at 37° C., HTRF cAMP kit

Compound	pEC50
COc1cc2c(cc1-c1cccc(NC(=O)CCOCCOCCOCCOCCNC(=O)CN3CCN(CC(=O)O)CCN(CC(=O)O)CCN(CC(=O)O)CC3)c1)-c1c(c(C(=O)N3CCOCC3(C)C)nn1-c1cc(Cl)cc(Cl)c1)CO2 [Compound 17B]	> 8.00
